The structures appear in SMILES notation.

The values that follow come from US8110583B2, “Tetrahydroquinoline derivatives” (Merck Patent GmbH, priority 2005, dated 2012).

The test system of this assay is cells. The experiment in a line: Cell cycle analysis (G2/M arrest). The format is cell-based. Conditions: single substances; no data given.

With `N=C(N)c1ccc(OCCCCCOc2ccc(C(=N)N)cc2)cc1` [pentamidine], the “effect on the cell cycle” value is given as “maintain cells in the G2/M cell cycle”.
